Assay results taken from US8633242B2, “Benzylidene indanones and processes for preparation and use thereof” (Council of Scientific and Industrial Research, priority 2011, dated 2014).
“Also recorded” adds a separate entry of the source. Where two headings read alike, the source gives them in different places.

Key:
THP-1 (Leukemia) = assay: Sulphorhodamine B cytotoxicity assay, THP-1; assay type: cell-based, human
Experimental: (§1) The benzylidene analogues were evaluated by Sulphorhodamine B Assay as per reported method [Skehan et al., J. Natl. Cancer Inst. 1990, 82, 1107]. The human cancer cell lines procured from National Cancer institute, Frederick, U.S.A. were used in present study. Cells were grown in tissue culture flasks in complete growth medium (RPMI-1640 medium with 2 mM glutamine, pH 7.4 supplemented with 10% fetal bovine serum, 100 μg/ml streptomycin and 100 units/ml penicillin) in a carbon dioxide incubator (37° C., 5% CO2, 90% RH). The cells at subconfluent stage were harvested from the flask by treatment with trypsin (0.05% in PBS (pH 7.4) containing 0.02% EDTA). Cells with viability of more than 98%, as determined by trypan blue exclusion, were used for determination of cytotoxicity. The cell suspension required concentration of cells was prepared in complete growth medium. Stock solution of 2×10^−2 M of compounds were prepared in DMSO and further dilution was carried out complete growth medium containing 50 μg/ml of gentamycin to obtained working test solution of required concentration. In vitro cytotoxicity against various human cancer cell lines was determined using 96-well cell culture plates. The 100 μl of cell suspension was added to each well of the 96-well cell culture plates. The cells were allowed to grow in CO2 incubator (37° C., 5% CO2, 90% RH) for 24 hours. The test materials in complete growth medium (100 μl) were added after 24 hours incubation to the wells containing cell suspension. The plates were further incubated for 48 hours (37° C. in an atmosphere of 5% CO2 and 90% relative humidity) in a carbon dioxide incubator after addition of test material and then the cell growth was stopped by gently layering trichloroacetic acid (50% TCA, 50 μl) on top of the medium in all the wells. The plates were incubated at 4° C. for one hour to fix the cells attached to the bottom of the wells. The liquid of all the wells was gently pipetted out and discarded. The plates were washed five times with distilled water to remove TCA, growth medium low molecular weight metabolites, serum proteins etc. and air-dried. Cell growth was measured by staining with sulforhodamine B dye. The adsorbed dye was dissolved in Tris-HCl Buffer (100 μl/well, 0.01M, pH 10.4) and plates were gently stirred for 10 minutes on a mechanical stirrer. The optical density (OD) was recorded on ELISA reader at 540 nm. 5-Fluorouracil, Paclitaxel (Taxol), Mitomycin-c and Adriamycin were used as positive controls.

PC-3 (prostate) = assay: Sulphorhodamine B cytotoxicity assay, PC-3; assay type: cell-based, human; parameters: key to Human cancer cell lines IC50, PC-3 (prostate): Inactive: inactive, if IC50 > 100 μM; details: SRB assay, 48 hours incubation
Experimental: as §1

[1] = tested on: various human cancer cell lines; assay: Cytotoxicity against various human cancer cell lines (summary statements); assay type: cell-based
Experimental: The benzylidene analogues were evaluated by Sulphorhodamine B Assay as per reported method [Skehan et al., J. Natl. Cancer Inst. 1990, 82, 1107]. The human cancer cell lines procured from National Cancer institute, Frederick, U.S.A. were used in present study. Cells were grown in tissue culture flasks in complete growth medium (RPMI-1640 medium with 2 mM glutamine, pH 7.4 supplemented with 10% fetal bovine serum, 100 μg/ml streptomycin and 100 units/ml penicillin) in a carbon dioxide incubator (37° C., 5% CO2, 90% RH). The cells at subconfluent stage were harvested from the flask by treatment with trypsin (0.05% in PBS (pH 7.4) containing 0.02% EDTA). Cells with viability of more than 98%, as determined by trypan blue exclusion, were used for determination of cytotoxicity. The cell suspension required concentration of cells was prepared in complete growth medium. Stock solution of 2×10^−2 M of compounds were prepared in DMSO and further dilution was carried out complete growth medium containing 50 μg/ml of gentamycin to obtained working test solution of required concentration. In vitro cytotoxicity against various human cancer cell lines was determined using 96-well cell culture plates. […] Cell growth was measured by staining with sulforhodamine B dye. […] The optical density (OD) was recorded on ELISA reader at 540 nm. […]

Swiss albino mice = details: mouse, in vivo; for ALKP / Body weight / Haemoglobin / SGOT / SGPT / Serum creatinine / Serum total cholesterol / Serum triglycerides: po
Experimental: In view of potent anti-cancer activity of compound 8 in in-vitro model, acute oral toxicity of the same was carried out in Swiss albino mice for its further development into drug product. For the study, 30 mice (15 male and 15 female) were taken and divided into five groups comprising 3 male and 3 female mice in each group weighing between 20-25 g. The animals were maintained at 22±5° C. with humidity control and also on an automatic dark and light cycle of 12 hours. The animals were fed with the standard rat feed and provided ad libitum drinking water. Mice of group 1 were kept as control and animals of groups […] were kept as experimental. The animals were acclimatized for 7 days in the experimental environment prior to the actual experimentation. The test compound was suspended by ultrasonication in cremophore EL (20% in distilled water) using traces of ethanol as a co-solvent and was given at 5, 50, 300 and 1000 mg/kg body weight to animals of groups 2, 3, 4 and 5 respectively. Control animals received only vehicle.
The animals were checked for mortality and any signs of ill health at hourly interval on the day of administration of drug and there after a daily general case side clinical examination was carried out including changes in skin, mucous membrane, eyes, occurrence of secretion and excretion and also responses like lachrymation, pilo-erection respiratory patterns etc. Also changes in gait. posture and response to handling were also recorded (Allan at al., 2007). In addition to observational study, body weights were recorded and blood and serum samples were collected from all the animals on 7th day after experiment and were analysed for total RBC, WBC, differential leucoyte count haemoglobin percentage and biochemical parameters like total cholesterol, triglycerides, creatinine, SGPT and SGOT activity. The animals were then sacrificed and were necropsed for any gross pathological changes. Weights of vital organs like liver, heart, kidney etc. were recorded (Chanda et al., 2009).

A549 (Lung) = assay: Sulphorhodamine B cytotoxicity assay, A549; assay type: cell-based, human; details: Homo sapiens, A549; SRB assay, 48 hours incubation; read-out: Human cancer cell lines IC50, A549 (Lung)
Experimental: as §1

HeLa (Cervix) = assay: Sulphorhodamine B cytotoxicity assay, HeLa; assay type: cell-based, human; details: Homo sapiens, HeLa; SRB assay, 48 hours incubation; read-out: Human cancer cell lines IC50, HeLa (Cervix)
Experimental: as §1

DU-145 (prostate) = assay: Sulphorhodamine B cytotoxicity assay, DU-145; assay type: cell-based, human; parameters: key to Human cancer cell lines IC50, DU-145 (prostate): Inactive: inactive, if IC50 > 100 μM; details: SRB assay, 48 hours incubation
Experimental: as §1

MCF-7 (Breast cancer) = assay: Sulphorhodamine B cytotoxicity assay, MCF-7; assay type: cell-based, human
Experimental: as §1

In the case of COc1cc(C2/C(=C/c3ccc4c(c3)OCO4)C(=O)c3cc(OC)c(OC)c(OC)c32)cc(OC)c1OC (racemic) [Compound 8, 2-(3,4-Methylenedioxybenzylidine), 3-(3,4,5-trimethoxyphenyl), 4,5,6-trimethoxyindanone], the “activity against leukemia cell lines (THP), in words” value (THP-1 (Leukemia)) is reported as “potent activity”, the IC50 (THP-1 (Leukemia); Homo sapiens, THP-1, SRB assay, 48 hours incubation, read-out: Human cancer cell lines IC50, THP-1 (Leukemia)) is reported as 4.9 µM and the “Human cancer cell lines IC50, PC-3 (prostate)” value (PC-3 (prostate)) is reported as “Inactive”. The “anticancer activity against human cancer cell lines, in words” value [1] was “exhibits anticancer activity”, the “observational changes, morbidity and mortality” value (Swiss albino mice; 300 mg/kg) was “No observational changes, morbidity and mortality” and the ALKP (Swiss albino mice; 5 mg/kg) was 82.51 ± 3.04 U/L. It also gave a Body weight (Swiss albino mice; 5 mg/kg) of 30.38 ± 0.77 g, a Haemoglobin (Swiss albino mice; 5 mg/kg) of 11.31 ± 1.14 g/dL and an SGOT (Swiss albino mice; 5 mg/kg) of 18.74 ± 1.54 U/L. The SGPT (Swiss albino mice; 5 mg/kg) was 6.90 ± 0.17 U/L, the Serum creatinine (Swiss albino mice; 5 mg/kg) was 0.53 ± 0.04 mg/dL and the Serum total cholesterol (Swiss albino mice; 5 mg/kg) was 109.42 ± 5.46 mg/dL. It also gave a Serum triglycerides (Swiss albino mice; 5 mg/kg) of 112.69 ± 3.75 mg/dL, an ALKP (Swiss albino mice; 50 mg/kg) of 94.24 ± 8.83 U/L and a Body weight (Swiss albino mice; 50 mg/kg) of 28.37 ± 1.42 g. For the same molecule, the Haemoglobin (Swiss albino mice; 50 mg/kg) was 12.93 ± 0.98 g/dL, the SGOT (Swiss albino mice; 50 mg/kg) was 20.66 ± 1.15 U/L and the SGPT (Swiss albino mice; 50 mg/kg) was 9.77 ± 0.77 U/L. For the same molecule, the Serum creatinine (Swiss albino mice; 50 mg/kg) was 0.45 ± 0.05 mg/dL, the Serum total cholesterol (Swiss albino mice; 50 mg/kg) was 125.69 ± 5.90 mg/dL and the Serum triglycerides (Swiss albino mice; 50 mg/kg) was 90.62 ± 8.41 mg/dL. The ALKP (Swiss albino mice; 300 mg/kg) was 90.11 ± 5.42 U/L, the Body weight (Swiss albino mice; 300 mg/kg) was 29.35 ± 1.63 g and the Haemoglobin (Swiss albino mice; 300 mg/kg) was 11.46 ± 0.76 g/dL. For the same molecule, the SGOT (Swiss albino mice; 300 mg/kg) was 26.55 ± 3.23 U/L, the SGPT (Swiss albino mice; 300 mg/kg) was 9.16 ± 1.14 U/L and the Serum creatinine (Swiss albino mice; 300 mg/kg) was 0.56 ± 0.07 mg/dL. It also gave a Serum total cholesterol (Swiss albino mice; 300 mg/kg) of 117.57 ± 3.45 mg/dL, a Serum triglycerides (Swiss albino mice; 300 mg/kg) of 113.15 ± 3.65 mg/dL and a Body weight (Swiss albino mice; 1000 mg/kg) of 30.69 ± 0.83 g. The Haemoglobin (Swiss albino mice; 1000 mg/kg) was 12.21 ± 1.46 g/dL, the SGOT (Swiss albino mice; 1000 mg/kg) was 19.38 ± 3.49 U/L and the Serum creatinine (Swiss albino mice; 1000 mg/kg) was 0.42 ± 0.09 mg/dL. The Serum total cholesterol (Swiss albino mice; 1000 mg/kg) was 118.60 ± 6.07 mg/dL, the Serum triglycerides (Swiss albino mice; 1000 mg/kg) was 97.44 ± 6.96 mg/dL and the IC50 (A549 (Lung)) was 11 µM. The IC50 (HeLa (Cervix)) was 23 µM, the “Human cancer cell lines IC50, DU-145 (prostate)” value (DU-145 (prostate)) was “Inactive” and the “anticancer activity against human breast cancer cells (MCF-7), in words” value (MCF-7 (Breast cancer)) was “better activity; also recorded: potent anticancer activity”. It also gave an IC50 (MCF-7 (Breast cancer); Homo sapiens, MCF7, SRB assay, 48 hours incubation, read-out: Human cancer cell lines IC50, MCF-7 (Breast cancer)) of 0.01 µM.
